{
  "source": "patent US20260048046A1",
  "about": "“METHOD FOR IMPROVING GROWTH PERFORMANCE IN FEEDLOT CATTLE” (Elanco US Inc., priority 2022, published 2026)",
  "tested_on": "beef steers",
  "experiment": "Lubabegron removal period study: animal mobility at harvest",
  "format": "in vivo, cattle",
  "conditions": "for Mobility Score 1, number of animals / Mobility Score 2, number of animals / Mobility Score 3, number of animals / Mobility Score 4, number of animals: Lubabegron 3.5 mg/kg, in lairage at harvest",
  "procedure": "Seven hundred English x Continental cross steers (initial BW=531±8.8 kg) were used in a randomized complete block design with seven treatments. Pen served as the experimental unit. […] Animals were managed as two-time replications with each replication containing five blocks (7 pens/block and 10 steers/pen). All ten blocks started and ended within 48 hours of each other. Cattle were weighed by pen using a 45,000-kg capacity pen scale (Model WI-130, Avery Weigh-Tronix LLC, Fairmont, MN; 3.66 m×21.34 m). All treatments were on feed for 71 d with harvest scheduled for 72 d. Because of an impending weather event, cattle were weighed to obtain a final BW one d early. Cattle were placed on their respective ration for the additional d and then shipped to the harvest facility the following morning.\n657 head were transported to a harvest facility approximately 495 km from the research facility. Animals were scored for animal mobility using the North American Meat Institute (NAMI, 2015) scoring scale described by Edwards-Callaway et al., (2017) while in lairage. […] Experienced staff collected an ear tag number, plant identification (ID), and carcass sequence and applied a unique carcass ID. Data collected on the kill floor included HCW, instances of excessive trim (>approximately 9 kg), and prevalence of liver abscess (Brown et al., 1975). Other carcass measures were obtained via instrument grading.\nContinuous variables were analyzed using the Mixed procedure of SAS (version 9.4; SAS Institute, Cary, NC). Block served as a random effect whereas treatment was fixed. Initial body weight was used to describe the uniformity of cattle randomized to treatment and used as a covariate when appropriate. Data were calculated with deads and removals excluded. Linear and quadratic effects of lubabegron removal were conducted as were individual comparisons for duration of removal (i.e., 0 vs 2 d; 0 vs 4 d, 0 vs 6 d; 0 vs 8 d and 0 vs 16 d). Fisher's Exact test was evaluated on mobility scores 1 and 2. No test was conducted on mobility scores of 3 or 4 because no scores were reported. Simple means and standard deviation of the tissues collected for the 5 animals were calculated.",
  "data": [
    {"smiles": "CC(C)(Cc1ccc(Oc2ncccc2C#N)cc1)NC[C@H](O)COc1ccccc1-c1cccs1", "note": "[LUB, 2-{4-[2-({(2S)-2-Hydroxy-3-[2-(2-thienyl)phenoxy]propyl}amino)-2-methylpropyl]phenoxy}nicotinonitrile]", "values": [
      {"measurement": "Animal mobility when lubabegron was fed", "setting": "3.5 mg/kg DM vs non-treated, P<0.25", "result": "No differences"},
      {"measurement": "Mobility Score 1, number of animals", "setting": "removal duration 0 d", "result": 92, "unit": "n"},
      {"measurement": "Mobility Score 2, number of animals", "setting": "removal duration 0 d", "result": 3, "unit": "n"},
      {"measurement": "Mobility Score 3, number of animals", "setting": "removal duration 0 d", "result": 0, "unit": "n"},
      {"measurement": "Mobility Score 4, number of animals", "setting": "removal duration 0 d", "result": 0, "unit": "n"},
      {"measurement": "Mobility Score 1, number of animals", "setting": "removal duration 2 d", "result": 95, "unit": "n"},
      {"measurement": "Mobility Score 2, number of animals", "setting": "removal duration 2 d", "result": 0, "unit": "n"},
      {"measurement": "Mobility Score 3, number of animals", "setting": "removal duration 2 d", "result": 0, "unit": "n"},
      {"measurement": "Mobility Score 4, number of animals", "setting": "removal duration 2 d", "result": 0, "unit": "n"},
      {"measurement": "Mobility Score 1, number of animals", "setting": "removal duration 4 d", "result": 91, "unit": "n"},
      {"measurement": "Mobility Score 2, number of animals", "setting": "removal duration 4 d", "result": 2, "unit": "n"},
      {"measurement": "Mobility Score 3, number of animals", "setting": "removal duration 4 d", "result": 0, "unit": "n"},
      {"measurement": "Mobility Score 4, number of animals", "setting": "removal duration 4 d", "result": 0, "unit": "n"},
      {"measurement": "Mobility Score 1, number of animals", "setting": "removal duration 6 d", "result": 89, "unit": "n"},
      {"measurement": "Mobility Score 2, number of animals", "setting": "removal duration 6 d", "result": 4, "unit": "n"},
      {"measurement": "Mobility Score 3, number of animals", "setting": "removal duration 6 d", "result": 0, "unit": "n"},
      {"measurement": "Mobility Score 4, number of animals", "setting": "removal duration 6 d", "result": 0, "unit": "n"},
      {"measurement": "Mobility Score 1, number of animals", "setting": "removal duration 8 d", "result": 87, "unit": "n"},
      {"measurement": "Mobility Score 2, number of animals", "setting": "removal duration 8 d", "result": 4, "unit": "n"},
      {"measurement": "Mobility Score 3, number of animals", "setting": "removal duration 8 d", "result": 0, "unit": "n"},
      {"measurement": "Mobility Score 4, number of animals", "setting": "removal duration 8 d", "result": 0, "unit": "n"},
      {"measurement": "Mobility Score 1, number of animals", "setting": "removal duration 16 d", "result": 90, "unit": "n"},
      {"measurement": "Mobility Score 2, number of animals", "setting": "removal duration 16 d", "result": 5, "unit": "n"},
      {"measurement": "Mobility Score 3, number of animals", "setting": "removal duration 16 d", "result": 0, "unit": "n"},
      {"measurement": "Mobility Score 4, number of animals", "setting": "removal duration 16 d", "result": 0, "unit": "n"},
      {"measurement": "Animal mobility with increased duration of removal", "setting": "lubabegron 3.5 mg/kg DM, removal 0 to 16 d, P<0.06", "result": "tended (P<0.06) to be reduced"}
    ]}
  ]
}
